Results published in paper PMC6278366, “Synthesis and Evaluation of Anticancer Activities of Novel C-28 Guanidine-Functionalized Triterpene Acid Derivatives” (Molecules, 2018).
Structures can show the parent of a compound that is named as a salt.

Tested on: Jurkat cells
Test: Annexin V/7-AAD apoptosis assay by flow cytometry
Assay type: cell-based, human
Conditions: 48 h
Method: Apoptosis was determined by flow cytometric analysis of Annexin V and 7-aminoactinomycin D staining. Briefly, 200 μL of Guava Nexin reagent (Millipore, Bedford, MA, USA) was added to 5 × 10^5 cells in 200 μL, and the cells were incubated with the reagent for 20 min at room temperature in the dark. […] At the end of incubation, the cells were analyzed on NovoCyteTM 2000 FlowCytometry System (ACEA). Different states of cell death were defined as follows: normal cells are localized in the lower-left quadrant (Annexin V^−/PI^−); early apoptotic cells are in the lower-right quadrant (Annexin V^+/PI^−); late apoptotic cells and necrotic cells are in the upper-right quadrant (Annexin V^+/PI^+); and necrotic cells are in the upper-left quadrant (Annexin V^−/PI^+).
Figure 2 AnnexinV/7-AAD staining upon induction of apoptosis in Jurkat cells. […] Then, the cells were harvested, stained with Annexin V/7-AAD and analyzed by flow cytometry. The experiments were performed three times, and the results of the representative experiments are shown. The first cytogram represents an untreated cell sample (A); after incubation with dihydrobetulinic acid for 24 h (B) and for 48 h (C); after incubation with compound 15 for 24 h (D) and for 48 h (E); after incubation with compound 15c for 24 h (F) and for 48 h (G); after incubation with compound 18c for 24 h (H) and for 48 h (I); after incubation with compound 20c for 24 h (J) and for 48 h (K). Q7-1, necrotic cells; Q7-2, late apoptotic cells; Q7-3, living cells; Q7-4, early apoptotic cells. TEXT PRINTED IN THE PICTURE: (B) Dihydro BA: Q7-1 0.96% (59 μM); Q7-2 12.11% (59 μM); Q7-3 80.09% (59 μM); Q7-4 6.84% (59 μM) | (C) Dihydro BA: Q7-1 2.34% (59 μM); Q7-2 20.53% (59 μM); Q7-3 73.11% (59 μM); Q7-4 4.02% (59 μM) | (D) Compound 15: Q7-1 3.08% (4 μM); Q7-2 2.24% (4 μM); Q7-3 92.34% (4 μM); Q7-4 2.34% (4 μM) | (E) Compound 15: Q7-1 5.53% (4 μM); Q7-2 91.79% (4 μM); Q7-3 0.58% (4 μM); Q7-4 2.10% (4 μM) | (F) Compound 15c: Q7-1 1.51% (4 μM); Q7-2 2.64% (4 μM); Q7-3 84.92% (4 μM); Q7-4 10.93% (4 μM) | (G) Compound 15c: Q7-1 21.72% (4 μM); Q7-2 16.54% (4 μM); Q7-3 54.49% (4 μM); Q7-4 7.25% (4 μM) | (H) Compound 18c: Q7-1 1.48% (4 μM); Q7-2 3.70% (4 μM); Q7-3 91.14% (4 μM); Q7-4 3.67% (4 μM) | (I) Compound 18c: Q7-1 20.73% (4 μM); Q7-2 14.32% (4 μM); Q7-3 58.16% (4 μM); Q7-4 6.79% (4 μM) | (J) Compound 20c: Q7-1 3.78% (8 μM); Q7-2 1.72% (8 μM); Q7-3 92.26% (8 μM); Q7-4 2.24% (8 μM) | (K) Compound 20c: Q7-1 6.09% (8 μM); Q7-2 7.35% (8 μM); Q7-3 78.36% (8 μM); Q7-4 8.20% (8 μM) DOUBTS OF THE COPYIST ABOUT THIS PICTURE: Panel A (Control, untreated cells: Q7-1 3.75%, Q7-2 0.00%, Q7-3 96.24%, Q7-4 0.01%) left out of lines because it is not a substance / Dihydro BA panel B, Q7-3: 80.09% partly overlaid by plot points, 80.09 or 80.03 / Dihydro BA panel C, Q7-3: 73.11% partly overlaid by plot points / Compound 18c panel I, Q7-3: 58.16% small print, 58.16 or 58.18 / Compound 15 panel E, Q7-3: 0.58% small print, 0.58 or 0.56

[1] = at IC50 concentration (59 μM Dihydro BA; 4 μM 15, 15c, 18c; 8 μM 20c)

Row | SMILES | early apoptotic cells (Q7-4) [1] | late apoptotic cells (Q7-2) [1] | living (vital) cells (Q7-3) [1] | necrotic cells (Q7-1) [1] | total number of apoptotic cells (early + late) (at IC50 concentration (59 μM Dihydro BA; 4 μM 15c; 8 μM 20c))
1 | CC(=O)O[C@H]1CC[C@@]2(C)C(CC[C@]3(C)C2CCC2C4C(C(C)C)CC[C@]4(C(=O)OCC(CO)(CO)NC(=N)N)CC[C@]23C)C1(C)C (stereo partly drawn) [Compound 15c, 3β-[2-Guanidine-3-hydroxy-2-(hydroxymethyl)propyl]-3-O-acetyl-lupane-28-oate hydrochloride] | 7.2% | 16.5% | 54.5% | 21.7% | 23.7%
2 | CC(=O)O[C@H]1CC[C@@]2(C)C(CC[C@]3(C)C2CCC2C4C(C(C)C)CC[C@]4(C(=O)OCC(N)(CO)CO)CC[C@]23C)C1(C)C (stereo partly drawn) [Compound 15, 3β-[2-Amino-3-hydroxy-2-(hydroxymethyl)propyl]-3-O-acetyl-lupane-28-oate] |  | 91.7% |  |  | 
